Data from patent US10202389B2, “Pyrazolopyrimidinyl inhibitors of ubiquitin-activating enzyme” (Millennium Pharmaceuticals, Inc., priority 2012, dated 2019).

biological target: recombinant human UAE (Homo sapiens (Human), UniProt P22314); experiment: Ubiquitin Activating Enzyme (UAE) HTRF Assay; conditions: read-out: % inhibition @0.111 μM
Sequence (P22314 whole entry): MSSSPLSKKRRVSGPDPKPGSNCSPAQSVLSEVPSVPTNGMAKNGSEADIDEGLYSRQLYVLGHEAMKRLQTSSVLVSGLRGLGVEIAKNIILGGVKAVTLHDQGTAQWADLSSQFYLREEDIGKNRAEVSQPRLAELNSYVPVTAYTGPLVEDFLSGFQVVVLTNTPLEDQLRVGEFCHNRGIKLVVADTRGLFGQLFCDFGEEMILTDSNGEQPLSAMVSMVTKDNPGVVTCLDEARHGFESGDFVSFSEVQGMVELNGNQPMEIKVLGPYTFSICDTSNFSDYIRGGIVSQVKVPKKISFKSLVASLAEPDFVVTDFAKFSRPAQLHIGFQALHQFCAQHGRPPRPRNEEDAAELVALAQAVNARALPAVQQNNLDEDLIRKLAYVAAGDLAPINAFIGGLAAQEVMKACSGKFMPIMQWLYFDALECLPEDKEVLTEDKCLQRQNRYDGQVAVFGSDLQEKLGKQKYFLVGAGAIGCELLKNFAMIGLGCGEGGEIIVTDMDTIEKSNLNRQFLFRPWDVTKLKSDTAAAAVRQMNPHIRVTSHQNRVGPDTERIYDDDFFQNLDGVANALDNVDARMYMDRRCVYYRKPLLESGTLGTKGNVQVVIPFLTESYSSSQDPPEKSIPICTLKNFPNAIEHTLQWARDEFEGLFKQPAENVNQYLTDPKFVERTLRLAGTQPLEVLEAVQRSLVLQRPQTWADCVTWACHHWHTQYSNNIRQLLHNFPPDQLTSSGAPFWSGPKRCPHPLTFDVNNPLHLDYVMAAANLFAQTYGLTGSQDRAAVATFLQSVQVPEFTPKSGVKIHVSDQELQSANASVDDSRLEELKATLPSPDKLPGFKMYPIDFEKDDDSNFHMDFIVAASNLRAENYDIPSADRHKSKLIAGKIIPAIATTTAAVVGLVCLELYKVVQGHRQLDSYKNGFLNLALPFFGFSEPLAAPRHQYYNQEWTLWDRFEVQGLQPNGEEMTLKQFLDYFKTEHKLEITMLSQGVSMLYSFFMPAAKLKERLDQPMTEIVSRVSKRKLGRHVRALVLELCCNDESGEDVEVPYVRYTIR
Procedure: After incubation for 120 minutes, quantification of the FRET is performed on the Pherostar (BMG).
For compounds whose values are marked with an asterisk (*), mouse UAE was used. For all other compounds, human UAE was used.

Point of comparison: COc1ccc(OC(F)(F)F)cc1-c1cc2nccc(N[C@@H]3C[C@H](COS(N)(=O)=O)[C@@H](O)[C@H]3O)n2n1 (relative stereo) [Compound I-066, (rac)-((1R,2R,3S,4R)-2,3-Dihydroxy-4-((2-(2-methoxy-5-(trifluoromethoxy)-phenyl)pyrazolo[1,5-a]pyrimidin-7-yl)amino)cyclopentyl)methyl rel-sulfamate], inhibition at 0.111 µM 100%. Against it:
- CC(C)(C)c1cccc(-c2cc3nccc(N[C@@H]4C[C@H](COS(N)(=O)=O)[C@@H](O)[C@H]4O)n3n2)n1 (relative stereo) [Compound I-052, (rac)-((1R,2R,3S,4R)-4-(2-(6-tert-butylpyridin-2-yl)pyrazolo[1,5-a]pyrimidin-7-ylamino)-2,3-dihydroxycyclopentyl)methyl rel-sulfamate] — the same, 100%
- COc1ccccc1-c1cc2nccc(N[C@@H]3C[C@H](COS(N)(=O)=O)[C@@H](O)[C@H]3O)n2n1 (relative stereo) [Compound I-072, (rac)-((1R,2R,3S,4R)-2,3-dihydroxy-4-(2-(2-methoxyphenyl)pyrazolo[1,5-a]pyrimidin-7-ylamino)cyclopentyl)methyl rel-sulfamate] — the same, 100%
- NS(=O)(=O)OC[C@H]1C[C@@H](Nc2ccnc3cc(-c4cccc(N5CCCC5)c4)nn23)[C@H](O)[C@@H]1O (relative stereo) [Compound I-046, (rac)-((1R,2R,3S,4R)-2,3-dihydroxy-4-(2-(3-(pyrrolidin-1-yl)phenyl)pyrazolo[1,5-a]pyrimidin-7-ylamino)cyclopentyl)methyl rel-sulfamate] — the same, 100%
- NS(=O)(=O)OC[C@H]1C[C@@H](Nc2ccnc3cc(-c4c[nH]c5cc(Cl)ccc45)nn23)[C@H](O)[C@@H]1O (relative stereo) [Compound I-055, (rac)-[(1R,2R,3S,4R)-4-{[2-(6-chloro-1H-indol-3-yl)pyrazolo[1,5-a]pyrimidin-7-yl]amino}-2,3-dihydroxycyclopentyl]methyl rel-sulfamate] — the same, 100%
- NS(=O)(=O)OC[C@H]1C[C@@H](Nc2ccnc3cc(-c4ccc5c(c4)oc4ccccc45)nn23)[C@H](O)[C@@H]1O (relative stereo) [Compound I-093, (rac)-((1R,2R,3S,4R)-4-(2-(dibenzo[b,d]furan-3-yl)pyrazolo[1,5-a]pyrimidin-7-ylamino)-2,3-dihydroxycyclopentyl)methyl rel-sulfamate] — the same, 100%
- NS(=O)(=O)OC[C@H]1C[C@@H](Nc2ccnc3cc(-c4ccc(OC(F)F)c5ccccc45)nn23)[C@H](O)[C@@H]1O [Compound I-112, (s.e.)-((1R,2R,3S,4R)-4-(2-(4-(difluoromethoxy)naphthalen-1-yl)pyrazolo[1,5-a]pyrimidin-7-ylamino)-2,3-dihydroxycyclopentyl)methyl sulfamate] — the same, 100%
- COc1ccc(C(F)(F)F)cc1-c1cc2nccc(N[C@@H]3C[C@H](COS(N)(=O)=O)[C@@H](O)[C@H]3O)n2n1 (relative stereo) [Compound I-065, (rac)-((1R,2R,3S,4R)-2,3-Dihydroxy-4-((2-(2-methoxy-5-(trifluoromethyl)phenyl)-pyrazolo[1,5-a]pyrimidin-7-yl)amino)cyclopentyl)methyl rel-sulfamate] — the same, 100%
- COc1cc(F)ccc1-c1cc2nccc(N[C@@H]3C[C@H](COS(N)(=O)=O)[C@@H](O)[C@H]3O)n2n1 (relative stereo) [Compound I-070, (rac)-((1R,2R,3S,4R)-4-(2-(4-fluoro-2-methoxyphenyl)pyrazolo[1,5-a]pyrimidin-7-ylamino)-2,3-dihydroxycyclopentyl)methyl rel-sulfamate] — lower, 99%
- NS(=O)(=O)OC[C@H]1C[C@@H](Nc2cc(Cl)nc3cc(-c4cccc5ccccc45)nn23)[C@H](O)[C@@H]1O (relative stereo) [Compound I-009, (rac)-((1R,2R,3S,4R)-4-{[5-chloro-2-(1-naphthyl)pyrazolo[1,5-a]pyrimidin-7-yl]amino}-2,3-dihydroxycyclopentyl)methyl rel-sulfamate] — lower, 42%
- NS(=O)(=O)OC[C@H]1C[C@@H](Nc2ccnc3cc(-c4ccc5c(c4)[nH]c4ccccc45)nn23)[C@H](O)[C@@H]1O (relative stereo) [Compound I-062, (rac)-[(1R,2R,3S,4R)-4-{[2-(9H-carbazol-2-yl)pyrazolo[1,5-a]pyrimidin-7-yl]amino}-2,3-dihydroxycyclopentyl]methyl rel-sulfamate] — the same, 100%
- NS(=O)(=O)OC[C@H]1C[C@@H](Nc2ccnc3cc(-c4ccc5ccccc5n4)nn23)[C@H](O)[C@@H]1O (relative stereo) [Compound I-042, (rac)-((1R,2R,3S,4R)-2,3-dihydroxy-4-(2-(quinolin-2-yl)pyrazolo[1,5-a]pyrimidin-7-ylamino)cyclopentyl)methyl rel-sulfamate] — the same, 100%
- NS(=O)(=O)OC[C@H]1C[C@@H](Nc2ccnc3cc(-c4cc(C(F)(F)F)ccc4Cl)nn23)[C@H](O)[C@@H]1O (relative stereo) [Compound I-030, (rac)-((1R,2R,3S,4R)-4-((2-(2-Chloro-5-(trifluoromethyl)phenyl)pyrazolo[1,5-a]pyrimidin-7-yl)amino)-2,3-dihydroxycyclopentyl)methyl rel-sulfamate] — lower, 99%
- NS(=O)(=O)OC[C@H]1C[C@@H](Nc2ccnc3cc(-c4cccc(C(F)(F)F)n4)nn23)[C@H](O)[C@@H]1O (relative stereo) [Compound I-064, (rac)-((1R,2R,3S,4R)-2,3-dihydroxy-4-(2-(6-(trifluoromethyl)pyridin-2-yl)pyrazolo[1,5-a]pyrimidin-7-ylamino)cyclopentyl)methyl rel-sulfamate] — lower, 96%
- NS(=O)(=O)OC[C@H]1C[C@@H](Nc2ccnc3cc(-c4cccc5c4sc4ccccc45)nn23)[C@H](O)[C@@H]1O (relative stereo) [Compound I-056, (rac)-((1R,2R,3S,4R)-4-((2-(Dibenzo[b,d]thiophen-4-yl)pyrazolo[1,5-a]pyrimidin-7-yl)amino)-2,3-dihydroxycyclopentyl)methyl rel-sulfamate] — the same, 100%
- CCc1ccc2scc(-c3cc4nccc(N[C@@H]5C[C@H](COS(N)(=O)=O)[C@@H](O)[C@H]5O)n4n3)c2c1 (relative stereo) [Compound I-094, (rac)-((1R,2R,3S,4R)-4-(2-(5-ethylbenzo[b]thiophen-3-yl)pyrazolo[1,5-a]pyrimidin-7-ylamino)-2,3-dihydroxycyclopentyl)methyl rel-sulfamate] — the same, 100%
- NS(=O)(=O)OC[C@H]1C[C@@H](Nc2ccnc3cc(-c4cccc5cc(C(=O)O)ccc45)nn23)[C@H](O)[C@@H]1O (relative stereo) [Compound I-099, (rac)-rel-5-[7-({(1R,2S,3R,4R)-2,3-dihydroxy-4-[(sulfamoyloxy)methyl]cyclopentyl}amino)pyrazolo[1,5-a]pyrimidin-2-yl]-2-naphthoic acid] — the same, 100%
- NS(=O)(=O)OC[C@H]1C[C@@H](Nc2ccnc3cc(-c4cccc(N5CCCCC5)c4)nn23)[C@H](O)[C@@H]1O (relative stereo) [Compound I-077, (rac)-((1R,2R,3S,4R)-2,3-dihydroxy-4-(2-(3-(piperidin-1-yl)phenyl)pyrazolo[1,5-a]pyrimidin-7-ylamino)cyclopentyl)methyl rel-sulfamate] — the same, 100%
- COc1ccc(-c2cc3nccc(N[C@@H]4C[C@H](COS(N)(=O)=O)[C@@H](O)[C@H]4O)n3n2)c2ccccc12 [Compound I-106, (s.e.)-((1R,2R,3S,4R)-2,3-dihydroxy-4-(2-(4-methoxynaphthalen-1-yl)pyrazolo[1,5-a]pyrimidin-7-ylamino)cyclopentyl)methyl sulfamate] — the same, 100%
- CCCOC(C)(C)c1cccc(-c2cc3nccc(N[C@@H]4C[C@H](COS(N)(=O)=O)[C@@H](O)[C@H]4O)n3n2)c1 (relative stereo) [Compound I-090, (rac)-((1R,2R,3S,4R)-2,3-dihydroxy-4-(2-(3-(2-propoxypropan-2-yl)phenyl)pyrazolo[1,5-a]pyrimidin-7-ylamino)cyclopentyl)methyl rel-sulfamate] — the same, 100%
- NS(=O)(=O)OC[C@H]1C[C@@H](Nc2ccnc3cc(-c4ccc5ncccc5c4)nn23)[C@H](O)[C@@H]1O (relative stereo) [Compound I-034, (rac)-((1R,2R,3S,4R)-2,3-dihydroxy-4-(2-(quinolin-6-yl)pyrazolo[1,5-a]pyrimidin-7-ylamino)cyclopentyl)methyl rel-sulfamate] — the same, 100%
- CC(C)Oc1ccc2ccccc2c1-c1cc2nccc(N[C@@H]3C[C@H](COS(N)(=O)=O)[C@@H](O)[C@H]3O)n2n1 [Compound I-109, (s.e.)-((1R,2R,3S,4R)-2,3-dihydroxy-4-(2-(2-isopropoxynaphthalen-1-yl)pyrazolo[1,5-a]pyrimidin-7-ylamino)cyclopentyl)methyl sulfamate] — the same, 100%
- NS(=O)(=O)OC[C@H]1C[C@@H](Nc2ccnc3cc(-c4cccc5ccccc45)nn23)[C@H](O)[C@@H]1O [Compound I-098, (s.e.)-((1R,2R,3S,4R)-2,3-dihydroxy-4-{[2-(1-naphthyl)pyrazolo[1,5-a]pyrimidin-7-yl]amino}cyclopentyl)methyl sulfamate] — the same, 100%
- COC(=O)c1ccc2c(-c3cc4nccc(N[C@@H]5C[C@H](COS(N)(=O)=O)[C@@H](O)[C@H]5O)n4n3)cccc2c1 (relative stereo) [Compound I-096, (rac)-methyl rel-5-[7-({(1R,2S,3R,4R)-2,3-dihydroxy-4-[(sulfamoyloxy)methyl]cyclopentyl}amino)pyrazolo[1,5-a]pyrimidin-2-yl]-2-naphthoate] — the same, 100%
- NS(=O)(=O)OC[C@H]1C[C@@H](Nc2ccnc3cc(-c4ccc5[nH]c6ccccc6c5c4)nn23)[C@H](O)[C@@H]1O (relative stereo) [Compound I-037, (rac)-[(1R,2R,3S,4R)-4-{[2-(9H-carbazol-3-yl)pyrazolo[1,5-a]pyrimidin-7-yl]amino}-2,3-dihydroxycyclopentyl]methyl rel-sulfamate] — the same, 100%
